In ChEMBL document CHEMBL5512655, “Discovery of indolylacryloyl-derived oxacins as novel potential broad-spectrum antibacterial candidates” (Eur J Med Chem, 2024):
Converted amounts (≈) assume the structure as drawn. The source made the active and inactive calls. The rule behind the calls is not given here.

Tests used:
[1] = Hemolytic activity in human red blood cells assessed as hemolysis rate at 64 ug/ml relative to control; format: toxicity, cell-based, Erythrocyte; conditions: red blood cells (erythrocytes), at 64 µg/mL, read-out: Activity
Escherichia coli [2] = assay: Induction of ROS production in Escherichia coli assessed as fluorescence intensity at 2 times of MIC by DCFH-DA (dichlorofluorescin diacetate) probe based assay; format: functional
Staphylococcus aureus [3] = assay: Anti-biofilm effect in methicillin-resistant Staphylococcus aureus N315 assessed as inhibition of biofilm formation by measuring reduction in exo-polysaccharide content at 6 times of MIC relative to control; format: functional
Escherichia coli [4] = assay: Antibacterial activity against Escherichia coli ATCC 25922 assessed as inhibition of bacterial growth measured after 24 hrs incubation; format: functional
Escherichia coli [5] = assay: Induction of ROS production in Escherichia coli assessed as fluorescence intensity by DCFH-DA (dichlorofluorescin diacetate) probe based assay; format: functional, organism-based
Pseudomonas aeruginosa = assay: Antibacterial activity against Pseudomonas aeruginosa ATCC 27853 assessed as inhibition of bacterial growth measured after 24 hrs incubation; format: functional
Cell membrane = assay: Induction of cell membrane damage in Escherichia coli assessed as increase in density of red fluorescence at 4 times of MIC by Calcein-AM/PI dual staining based fluorescence microscopy; format: cell membranes
Staphylococcus aureus [6] = assay: Induction of lipid peroxidation in methicillin-resistant Staphylococcus aureus N315 assessed as malondialdehyde (MDA) level production at 4 time of MIC; format: functional, organism-based
Escherichia coli [7] = assay: Anti-biofilm effect in Escherichia coli assessed as biofilm destruction by measuring reduced biofilm content at MIC; format: functional
Staphylococcus aureus [8] = assay: Reduction in metabolic activity in methicillin-resistant Staphylococcus aureus N315 at 6 times of MIC by Alamar Blue assay relative to control; format: functional; set-up: scale not given: the % may be the effect or the level left
Staphylococcus aureus [9] = assay: Antibacterial activity against methicillin-resistant Staphylococcus aureus N315 assessed as resistance development by measuring compound concentration required to inhibit measured after 18 generations; format: functional
Staphylococcus aureus [10] = assay: Antibacterial activity against methicillin-resistant Staphylococcus aureus N315 assessed as resistance development measured after 18 generations; format: functional, organism-based
Staphylococcus aureus [11] = assay: Antibacterial activity against Staphylococcus aureus assessed as inhibition of bacterial growth measured after 24 hrs incubation; format: functional
Calf thymus DNA = assay: Binding affinity to calf thymus DNA assessed as hypochromism by spectroscopic analysis; format: nucleic-acid assay; conditions: Bos taurus

Q: With `CCOC(=O)Cn1cc(/C=C(\C#N)C(=O)N2CCN(c3cc4c(cc3F)c(=O)c(C(=O)O)cn4CC)CC2)c2ccccc21` as the compound, how does the hemolysis at 64 ug/ml [1] read?
A: < 5%

Q: What about the Activity (Escherichia coli [2]) of the same compound?
A: >50%

Q: And the “inhibition (INH)” value (Staphylococcus aureus [3])?
A: <50%

Q: What about the MIC (Escherichia coli [4]) of the same compound?
A: 0.5 µg/mL (≈ 0.834 µM)

Q: And the Activity (Escherichia coli [5])?
A: Dose-Dependent Effect

Q: And the MIC (Pseudomonas aeruginosa)?
A: 0.5 µg/mL (≈ 0.834 µM)

Q: What about the Activity (Cell membrane) of the same compound?
A: Active

Q: And the Activity (Staphylococcus aureus [6])?
A: Active

Q: What about the “inhibition (INH)” value (Escherichia coli [7]) of the same compound?
A: 82.7%

Q: What about the Activity (Staphylococcus aureus [8]) of the same compound?
A: >50%

Q: What about the MIC (Staphylococcus aureus [9]) of the same compound?
A: 64 µg/mL (≈ 107 µM)

Q: And the Activity (Staphylococcus aureus [10])?
A: Active

Q: And the MIC (Staphylococcus aureus [11])?
A: 0.25 µg/mL (≈ 0.417 µM)

Q: And the Activity (Calf thymus DNA)?
A: Active
